Results published in US9597407B2, “Targeted antimicrobial moieties” (C3 Jian, Inc., priority 2009, dated 2017).
Entries after “also recorded” stand apart in the source; their conditions may differ.

Legend:
bacteria = test: Binding of targeting peptides to microorganisms (Table 3); settings: preferably 1x PBS; for Target(s) (microorganism bound by the targeting peptide) / Target(s) (microorganisms bound by the targeting peptide): peptide binding in aqueous buffers that varied depending on peptide solubility
microorganisms = test: Morphology, biofilm and growth disruption by peptides (Table 5); format: cell-based; design: key: A: Peptide aggregates; B: Less hyphal formation; Clumps; Diffuse clumps and small polyps; F: Diffuse growth; H: Thin; I: Growth inhibition; Microcolony formation; Rippled; Small polyps; Thick; W: Halo formation on top, microlonies on bottom
Excerpt: In certain embodiments peptides that induce alterations in phenotype or other biological activities can also be used as antimicrobial effector moieties.

[1] = microorganism bound by the targeting peptide, binding in aqueous buffers chosen by peptide solubility

PF-632 (chain 1 TTIQGVASLEKHGFRYTIIYPTRI; chain 2 TTIQGVASLEKHGFRYTIIYPTRI; Peptide with targeting and/or antimicrobial activity)
Target(s) (microorganism bound by the targeting peptide) (bacteria): S. epidermidis and P. aeruginosa and C. albicans and MRSA and S. pneumoniae and E. faecalis and C. jeikeium
Organism, effect (morphology, biofilm and growth disruption) (microorganisms; B. subtilis): B. subtilis (H)
Organism, effect (morphology, biofilm and growth disruption) (microorganisms; C. albicans): C. albicans (B)
Organism, effect (morphology, biofilm and growth disruption) (microorganisms; C. jeikeium): C. jeikeium (D)
Organism, effect (morphology, biofilm and growth disruption) (microorganisms; E. faecalis): E. faecalis (D)
Organism, effect (morphology, biofilm and growth disruption) (microorganisms; MRSA): MRSA (D)
Organism, effect (morphology, biofilm and growth disruption) (microorganisms; S. epidermidis): S. epidermidis (D)
Organism, effect (morphology, biofilm and growth disruption) (microorganisms; S. pneumoniae): S. pneumoniae (M)

PF-234 (RTPYILRS; Peptide with targeting and/or antimicrobial activity)
Target(s) (bacteria; [1]): S. epidermidis; also recorded: M. luteus
Organism, effect (microorganisms; M. luteus): M. luteus (T)

PF-421 (KHCFEITDKTDVV; Peptide with targeting and/or antimicrobial activity)
Target(s) (microorganisms bound by the targeting peptide) (bacteria): C. jeikeium
Organism, effect (microorganisms; S. pneumoniae): S. pneumoniae (H)

PF-C091 (ASNTPRFVRLTLFNFYSKIWNVTHLFLFNNL; Peptide with targeting and/or antimicrobial activity)
Target(s) (microorganism bound by the targeting peptide) (bacteria): A. naeslundii; also recorded: F. nucleatum; also recorded: P. gingivalis; also recorded: S. mutans; also recorded: T. denticola
Organism, effect (morphology, biofilm and growth disruption) (microorganisms; F. nucleatum): F. nucleatum (T)

PF-684 (chain 1 RKLSLASGFALWRRSLV; chain 2 RKLSLASGFALWRRSLV; Peptide with targeting and/or antimicrobial activity)
Target(s) (microorganism bound by the targeting peptide) (bacteria): Mycobacteria spp
Organism, effect (morphology, biofilm and growth disruption) (microorganisms; C. albicans): C. albicans (B)
Organism, effect (morphology, biofilm and growth disruption) (microorganisms; E. faecalis): E. faecalis (A)
Organism, effect (morphology, biofilm and growth disruption) (microorganisms; S. pneumoniae): S. pneumoniae (C)

PF-149 (GKVSVLTRVPRSLGGAPANQ; Peptide with targeting and/or antimicrobial activity)
Target(s) (bacteria; [1]): S. epidermidis and M. luteus and E. coli and MRSA and C. jeikeium
Organism, effect (microorganisms; MRSA): MRSA (H)

PF-C137 (QRMYWFKRGFETGDFSAGDTFAELK; Peptide with targeting and/or antimicrobial activity)
Target(s) (microorganism bound by the targeting peptide) (bacteria): A. naeslundii; also recorded: F. nucleatum; also recorded: P. gingivalis; also recorded: S. mutans
Organism, effect (morphology, biofilm and growth disruption) (microorganisms; F. nucleatum): F. nucleatum (T)

LMFFSENMDKRDTLSGKFRYFAGSKVIKLMNWLSENGK [PF-226]
Target(s) (bacteria; [1]): A. baumannii
Organism, effect (microorganisms; M. luteus): M. luteus (T)
Organism, effect (microorganisms; S. epidermidis): S. epidermidis (C)

CGKLLEQKNFFLKTR [PF-521]
Target(s) (microorganisms bound by the targeting peptide) (bacteria): S. epidermidis; also recorded: E. coli; also recorded: P. aeruginosa; also recorded: S. pneumoniae; also recorded: E. faecalis
Organism, effect (morphology, biofilm and growth disruption) (microorganisms; S. pneumoniae): S. pneumoniae (H)

PF-776 (VSILLYLSATIILPNVLRLLVARAIIVRV; Peptide with targeting and/or antimicrobial activity)
Target(s) (microorganism bound by the targeting peptide) (bacteria): S. epidermidis and M. luteus and P. mirabilis and C. albicans and MRSA and S. pneumoniae and E. faecalis
Organism, effect (morphology, biofilm and growth disruption) (microorganisms; E. coli): E. coli (C)
Organism, effect (morphology, biofilm and growth disruption) (microorganisms; M. luteus): M. luteus (C)
Organism, effect (morphology, biofilm and growth disruption) (microorganisms; MRSA): MRSA (D)
Organism, effect (morphology, biofilm and growth disruption) (microorganisms; S. epidermidis): S. epidermidis (D)
Organism, effect (morphology, biofilm and growth disruption) (microorganisms; S. mutans): S. mutans (D)
Organism, effect (morphology, biofilm and growth disruption) (microorganisms; S. pneumoniae): S. pneumoniae (C)

PF-406 (YLEMNADYLSNMDIFDELWEKYLENNK; Peptide with targeting and/or antimicrobial activity)
Target(s) (microorganisms bound by the targeting peptide) (bacteria): E. coli; also recorded: C. jejuni
Organism, effect (microorganisms; MRSA): MRSA (M)
Organism, effect (microorganisms; S. epidermidis): S. epidermidis (C)

PF-686 (chain 1 LAVLMGYIGYRGWSGKRHINRQ; chain 2 LAVLMGYIGYRGWSGKRHINRQ; Peptide with targeting and/or antimicrobial activity)
Target(s) (microorganism bound by the targeting peptide) (bacteria): M. smegmatis
Organism, effect (morphology, biofilm and growth disruption) (microorganisms; B. subtilis): B. subtilis (I)
Organism, effect (morphology, biofilm and growth disruption) (microorganisms; C. albicans): C. albicans (B)
Organism, effect (morphology, biofilm and growth disruption) (microorganisms; E. faecalis): E. faecalis (R)
Organism, effect (morphology, biofilm and growth disruption) (microorganisms; MRSA): MRSA (M)
Organism, effect (morphology, biofilm and growth disruption) (microorganisms; S. epidermidis): S. epidermidis (H)
Organism, effect (morphology, biofilm and growth disruption) (microorganisms; S. pneumoniae): S. pneumoniae (A)

PF-644 (chain 1 TSGLIIGENGLNGL; chain 2 TSGLIIGENGLNGL; Peptide with targeting and/or antimicrobial activity)
Target(s) (microorganism bound by the targeting peptide) (bacteria): Mycobacteria spp
Organism, effect (morphology, biofilm and growth disruption) (microorganisms; S. pneumoniae): S. pneumoniae (H)

PF-413 (TFAGSIKIGVPDLVHVTFNCKR; Peptide with targeting and/or antimicrobial activity)
Target(s) (microorganisms bound by the targeting peptide) (bacteria): P. aeruginosa; also recorded: C. albicans; also recorded: C. jejuni
Organism, effect (microorganisms; E. coli): E. coli (S)
Organism, effect (microorganisms; MRSA): MRSA (C)
Organism, effect (microorganisms; S. epidermidis): S. epidermidis (C)

PF-696 (chain 1 IRSGISAAYARPLR; chain 2 IRSGISAAYARPLR; Peptide with targeting and/or antimicrobial activity)
Target(s) (microorganism bound by the targeting peptide) (bacteria): Mycobacteria spp
Organism, effect (morphology, biofilm and growth disruption) (microorganisms; S. pneumoniae): S. pneumoniae (H)

PF-C062 (PLARATEVVATLFIICSLLLYLTR; Peptide with targeting and/or antimicrobial activity)
Target(s) (microorganism bound by the targeting peptide) (bacteria): A. naeslundii; also recorded: F. nucleatum; also recorded: P. gingivalis; also recorded: S. mutans; also recorded: T. denticola
Organism, effect (morphology, biofilm and growth disruption) (microorganisms; F. nucleatum): F. nucleatum (T)
Organism, effect (morphology, biofilm and growth disruption) (microorganisms; S. mutans): S. mutans (I)

PF-070 (SMVKSEIVDLLNGEDNDD; Peptide with targeting and/or antimicrobial activity)
Target(s) (bacteria; microorganism the targeting peptide binds, binding in aqueous buffers that varied with peptide solubility): S. epidermidis; also recorded: C. jejuni
Organism, effect (microorganisms; B. subtilis): B. subtilis (D)

PF-681 (chain 1 TALTTVGVSGARLITYCVGVEDI; chain 2 TALTTVGVSGARLITYCVGVEDI; Peptide with targeting and/or antimicrobial activity)
Target(s) (microorganism bound by the targeting peptide) (bacteria): M. smegmatis
Organism, effect (morphology, biofilm and growth disruption) (microorganisms; C. jeikeium): C. jeikeium (R)
Organism, effect (morphology, biofilm and growth disruption) (microorganisms; E. faecalis): E. faecalis (R)
Organism, effect (morphology, biofilm and growth disruption) (microorganisms; MRSA): MRSA (M)
Organism, effect (morphology, biofilm and growth disruption) (microorganisms; S. epidermidis): S. epidermidis (M)
Organism, effect (morphology, biofilm and growth disruption) (microorganisms; S. pneumoniae): S. pneumoniae (M)

PF-668 (chain 1 TNAESMALAFRGRVHMSVNIAGLT; chain 2 TNAESMALAFRGRVHMSVNIAGLT; Peptide with targeting and/or antimicrobial activity)
Target(s) (microorganism bound by the targeting peptide) (bacteria): Mycobacteria spp
Organism, effect (morphology, biofilm and growth disruption) (microorganisms; B. subtilis): B. subtilis (A)
Organism, effect (morphology, biofilm and growth disruption) (microorganisms; C. albicans): C. albicans (A)
Organism, effect (morphology, biofilm and growth disruption) (microorganisms; C. jeikeium): C. jeikeium (D)
Organism, effect (morphology, biofilm and growth disruption) (microorganisms; E. faecalis): E. faecalis (D)
Organism, effect (morphology, biofilm and growth disruption) (microorganisms; MRSA): MRSA (R)
Organism, effect (morphology, biofilm and growth disruption) (microorganisms; S. epidermidis): S. epidermidis (M)
Organism, effect (morphology, biofilm and growth disruption) (microorganisms; S. pneumoniae): S. pneumoniae (M)

PF-588 (ESVEAIKAKAIK; Peptide with targeting and/or antimicrobial activity)
Target(s) (microorganisms bound by the targeting peptide) (bacteria): S. epidermidis; also recorded: E. coli; also recorded: C. albicans; also recorded: E. faecalis; also recorded: C. jeikeium; also recorded: C. jejuni
Organism, effect (morphology, biofilm and growth disruption) (microorganisms; E. faecalis): E. faecalis (A)

PF-688 (chain 1 ARNHAVIPAG; chain 2 ARNHAVIPAG; Peptide with targeting and/or antimicrobial activity)
Target(s) (microorganism bound by the targeting peptide) (bacteria): Mycobacteria spp
Organism, effect (morphology, biofilm and growth disruption) (microorganisms; S. pneumoniae): S. pneumoniae (A)

PF-416 (SKAGLYGKIERSDKRE; Peptide with targeting and/or antimicrobial activity)
Target(s) (microorganisms bound by the targeting peptide) (bacteria): S. pneumoniae; also recorded: C. jeikeium
Organism, effect (microorganisms; S. pneumoniae): S. pneumoniae (H)

PF-639 (chain 1 QATQIKSWIDRLLVSED; chain 2 QATQIKSWIDRLLVSED; Peptide with targeting and/or antimicrobial activity)
Target(s) (microorganism bound by the targeting peptide) (bacteria): S. pneumoniae; also recorded: C. jeikeium
Organism, effect (morphology, biofilm and growth disruption) (microorganisms; C. albicans): C. albicans (B)
Organism, effect (morphology, biofilm and growth disruption) (microorganisms; E. faecalis): E. faecalis (H)
Organism, effect (morphology, biofilm and growth disruption) (microorganisms; MRSA): MRSA (R)
Organism, effect (morphology, biofilm and growth disruption) (microorganisms; S. pneumoniae): S. pneumoniae (I)

PF-215 (ELKITNYNVNTVLYRYYKWGNDLCE; Peptide with targeting and/or antimicrobial activity)
Target(s) (bacteria; [1]): S. epidermidis; also recorded: M. luteus; also recorded: P. aeruginosa; also recorded: A. baumannii
Organism, effect (microorganisms; M. luteus): M. luteus (T)

PF-697 (chain 1 RADARAK; chain 2 RADARAK; Peptide with targeting and/or antimicrobial activity)
Target(s) (microorganism bound by the targeting peptide) (bacteria): Mycobacteria spp
Organism, effect (morphology, biofilm and growth disruption) (microorganisms; C. albicans): C. albicans (H)
Organism, effect (morphology, biofilm and growth disruption) (microorganisms; S. pneumoniae): S. pneumoniae (H)

PF-663 (chain 1 ATLIPRKA; chain 2 ATLIPRKA; Peptide with targeting and/or antimicrobial activity)
Target(s) (microorganism bound by the targeting peptide) (bacteria): Mycobacteria spp
Organism, effect (morphology, biofilm and growth disruption) (microorganisms; S. pneumoniae): S. pneumoniae (A)

PF-099 (EIIAYLEGRFANA; Peptide with targeting and/or antimicrobial activity)
Target(s) (bacteria; [1]): S. epidermidis; also recorded: M. luteus; also recorded: E. coli; also recorded: C. jeikeium
Organism, effect (microorganisms; C. jeikeium): C. jeikeium (C)
Organism, effect (microorganisms; S. epidermidis): S. epidermidis (D)
